Measurements published in patent publication US7964599B2, “Therapeutic compounds” (Allergan, Inc., priority 2008, dated 2011).

What was measured:
Format in all cases: in vivo
normotensive dogs = experiment: Intraocular pressure reduction in normotensive dogs; conditions: change from baseline
Experimental: (§1) Compounds such as those described in the above are tested in vivo to measure its ability to reduce intraocular pressure. Compound 1 is tested in normotensive dogs.

[1] = test system: laser-induced hypertensive monkeys; experiment: Intraocular pressure reduction in laser-induced hypertensive monkeys; conditions: change from baseline
Experimental: [The source words this procedure for another organism and reports this organism under the same test.] as §1

[2] = test system: lashes and adjacent hairs of patients; experiment: Eyelash/hair growth observed in glaucoma patients treated in one eye; conditions: glaucoma patient treated in only one eye
From the text: In the course of treating patients having glaucoma, treatment may only be appropriate in one eye. […] The lash appearance on the lids of the treated eyes would have appeared quite attractive if it represented a bilateral phenomenon. As a result of its asymmetric nature, the long lashes on one side could be construed as disturbing from a cosmetic standpoint. A systemic examination was preformed as a result of the asymmetric phenomenon. It soon became apparent that this altered appearance was not an isolated finding. […] Definite differences could be identified to varying degrees in the lashes and adjacent hairs of all patients who were taking the drug on a unilateral basis for longer than 6 months.
The changes in the lashes were apparent on gross inspection in several patients once attention was focused on the issue. In those with light colored hair and lashes, the differences were only seen easily with the aid of the high magnification and lighting capabilities of the slit lamp biomicroscope. In the course of glaucoma follow-up examination, attention is generally immediately focused on the eye itself. As a result of the high power magnification needed only one eye is seen at a time and the eye is seen at a high enough power that the lashes are not in focus. […]

Compound	intraocular pressure (IOP) (normotensive dogs)	IOP [1]	lash appearance in treated eye versus non-treated eye [2]
CCCCCC(=O)c1ccc([C@H]2C(O)C[C@@H](Cl)[C@@H]2C/C=C\CCCC(=O)OCCN2CCOCC2)cc1 (stereo partly drawn) [Compound 8]	decreases from baseline	decreases from baseline	
(Z)-7-{(1R,2S,3R,5R)-5-Chloro-3-hydroxy-2-[4-(1-hydroxy-hexyl)-phenyl]-cyclopentyl}-hept-5-enoic acid methyl ester [Compound 1]	decreases from baseline	decreases from baseline	
CCCCCC(O)c1ccc([C@H]2C(O)C[C@@H](Cl)[C@@H]2C/C=C\CCCC(=O)OCCN2CCOCC2)cc1 (stereo partly drawn) [Compound 7]	decreases from baseline	decreases from baseline	
CCCCCC(=O)c1ccc([C@H]2C(=O)C[C@@H](Cl)[C@@H]2C/C=C\CCCC(=O)OCCN2CCOCC2)cc1 [Compound 5]	decreases from baseline	decreases from baseline	
CCNC(=O)CCC/C=C\C[C@@H]1[C@@H](/C=C/[C@@H](O)CCc2ccccc2)[C@H](O)C[C@@H]1O [bimatoprost]			longer, thicker, and fuller
(Z)-7-[(1R,2S,3R,5R)-5-Chloro-2-(4-hexanoyl-phenyl)-3-hydroxy-cyclopentyl]-hept-5-enoic acid [Compound 3]	decreases from baseline	decreases from baseline	
CCCCCC(O)c1ccc([C@H]2C(=O)C[C@@H](Cl)[C@@H]2C/C=C\CCCC(=O)OCCN2CCOCC2)cc1 (stereo partly drawn) [Compound 6]	decreases from baseline	decreases from baseline	
(Z)-7-[(1R,2S,3R,5R)-5-Chloro-2-(4-hexanoyl-phenyl)-3-hydroxy-cyclopentyl]-hept-5-enoic acid methyl ester [Compound 2]	decreases from baseline	decreases from baseline	
